Data from ChEMBL document CHEMBL1201862, “PubChem BioAssay data set” (2004).
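Grown in 96-well plates, cells were treated for 48 hours with each compound at five concentrations. Insufficient inhibition: endpoint recorded as highest concentration tested. Here, GI50 denotes the concentration required for 50% inhibition of growth.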 Calls of active or inactive are those of the source. Rule as the data show it: active = GI50 up to about 1.1 µM and inactive = higher.

What was measured:
Assay in all cases: NCI tumour cell line growth inhibition, 48 h
786-0 = tested on: 786-0
A498 = tested on: A498
A549 = tested on: A549
ACHN = tested on: ACHN
BT-549 = tested on: BT-549
CCRF-CEM = tested on: CCRF-CEM
DU-145 = tested on: DU-145
EKVX = tested on: EKVX
HCC 2998 = tested on: HCC 2998
HCT-116 = tested on: HCT-116
HCT-15 = tested on: HCT-15
HL-60 = tested on: HL-60
HOP-62 = tested on: HOP-62
HOP-92 = tested on: HOP-92
HT-29 = tested on: HT-29
Hs-578T = tested on: Hs-578T
IGROV-1 = tested on: IGROV-1
K562 = tested on: K562
KM12 = tested on: KM12
LOX IMVI = tested on: LOX IMVI
M14 = tested on: M14
MCF7 = tested on: MCF7
MDA-MB-231 = tested on: MDA-MB-231
MDA-MB-435 = tested on: MDA-MB-435
MDA-N = tested on: MDA-N
MOLT-4 = tested on: MOLT-4
Malme-3M = tested on: Malme-3M
NCI-H226 = tested on: NCI-H226
NCI-H23 = tested on: NCI-H23
NCI-H460 = tested on: NCI-H460
OVCAR-3 = tested on: OVCAR-3
OVCAR-5 = tested on: OVCAR-5
OVCAR-8 = tested on: OVCAR-8
PC-3 = tested on: PC-3
RPMI-8226 = tested on: RPMI-8226
RXF 393 = tested on: RXF 393
SF-268 = tested on: SF-268
SF-295 = tested on: SF-295
SF-539 = tested on: SF-539
SK-MEL-28 = tested on: SK-MEL-28
SK-MEL-2 = tested on: SK-MEL-2
SK-MEL-5 = tested on: SK-MEL-5
SK-OV-3 = tested on: SK-OV-3
SN12C = tested on: SN12C
SNB-19 = tested on: SNB-19
SNB-75 = tested on: SNB-75
SR = tested on: SR
SW-620 = tested on: SW-620
T47D = tested on: T47D
TK-10 = tested on: TK-10
U-251 = tested on: U-251
UACC-257 = tested on: UACC-257
UACC-62 = tested on: UACC-62
UO-31 = tested on: UO-31
CAKI-1 = tested on: CAKI-1
NCI-H522 = tested on: NCI-H522
NCI/ADR-RES = tested on: NCI/ADR-RES
OVCAR-4 = tested on: OVCAR-4

CC1(CCC2C=CCC2)CCCNC1=S (configuration not stated)
GI50 (786-0): > 10 µM (inactive) | GI50 (A498): > 10 µM (inactive) | GI50 (A549): > 10 µM (inactive) | GI50 (ACHN): > 10 µM (inactive) | GI50 (BT-549): > 10 µM (inactive) | GI50 (CCRF-CEM): > 10 µM (inactive) | GI50 (DU-145): > 10 µM (inactive) | GI50 (EKVX): > 10 µM (inactive) | GI50 (HCC 2998): > 10 µM (inactive) | GI50 (HCT-116): > 10 µM (inactive) | GI50 (HCT-15): > 10 µM | GI50 (HL-60): > 10 µM (inactive) | GI50 (HOP-62): > 10 µM (inactive) | GI50 (HOP-92): > 10 µM (inactive) | GI50 (HT-29): > 10 µM (inactive) | GI50 (Hs-578T): > 10 µM (inactive) | GI50 (IGROV-1): > 10 µM (inactive) | GI50 (K562): > 10 µM (inactive) | GI50 (KM12): > 10 µM (inactive) | GI50 (LOX IMVI): > 10 µM (inactive) | GI50 (M14): > 10 µM (inactive) | GI50 (MCF7): > 10 µM (inactive) | GI50 (MDA-MB-231): > 10 µM (inactive) | GI50 (MDA-MB-435): > 10 µM (inactive) | GI50 (MDA-N): > 10 µM (inactive) | GI50 (MOLT-4): > 10 µM (inactive) | GI50 (Malme-3M): > 10 µM (inactive) | GI50 (NCI-H226): > 10 µM (inactive) | GI50 (NCI-H23): > 10 µM (inactive) | GI50 (NCI-H460): > 10 µM (inactive) | GI50 (OVCAR-3): > 10 µM (inactive) | GI50 (OVCAR-5): > 10 µM (inactive) | GI50 (OVCAR-8): > 10 µM (inactive) | GI50 (PC-3): > 10 µM (inactive) | GI50 (RPMI-8226): > 10 µM (inactive) | GI50 (RXF 393): > 10 µM (inactive) | GI50 (SF-268): > 10 µM (inactive) | GI50 (SF-295): > 10 µM (inactive) | GI50 (SF-539): > 10 µM (inactive) | GI50 (SK-MEL-28): > 10 µM (inactive) | GI50 (SK-MEL-2): > 10 µM (inactive) | GI50 (SK-MEL-5): > 10 µM (inactive) | GI50 (SK-OV-3): > 10 µM (inactive) | GI50 (SN12C): > 10 µM (inactive) | GI50 (SNB-19): > 10 µM (inactive) | GI50 (SNB-75): > 10 µM (inactive) | GI50 (SR): > 10 µM (inactive) | GI50 (SW-620): > 10 µM (inactive) | GI50 (T47D): > 10 µM (inactive) | GI50 (TK-10): > 10 µM (inactive) | GI50 (U-251): > 10 µM (inactive) | GI50 (UACC-257): > 10 µM (inactive) | GI50 (UACC-62): > 10 µM (inactive) | GI50 (UO-31): > 10 µM (inactive)

COC(=O)C(=O)C(C(=O)C(=O)Nc1ccc(C)cc1)c1nc2ccc(C(=O)c3ccccc3)cc2nc1O (configuration not stated)
GI50 (786-0): > 100 µM (inactive) | GI50 (A498): > 100 µM (inactive) | GI50 (A549): > 100 µM (inactive) | GI50 (ACHN): > 100 µM (inactive) | GI50 (BT-549): > 100 µM (inactive) | GI50 (CAKI-1): 39.4 µM (inactive) | GI50 (CCRF-CEM): 76.4 µM (inactive) | GI50 (EKVX): > 100 µM (inactive) | GI50 (HCC 2998): 92.3 µM (inactive) | GI50 (HCT-116): > 100 µM (inactive) | GI50 (HCT-15): 52.2 µM | GI50 (HL-60): 30.1 µM (inactive) | GI50 (HOP-62): 46.9 µM (inactive) | GI50 (HOP-92): > 100 µM (inactive) | GI50 (HT-29): 7.83 µM (inactive) | GI50 (Hs-578T): 57.3 µM (inactive) | GI50 (IGROV-1): > 100 µM (inactive) | GI50 (K562): 42.2 µM (inactive) | GI50 (KM12): 30.4 µM (inactive) | GI50 (LOX IMVI): > 100 µM (inactive) | GI50 (MDA-MB-231): > 100 µM (inactive) | GI50 (MDA-MB-435): 47.3 µM (inactive) | GI50 (MDA-N): 43.4 µM (inactive) | GI50 (Malme-3M): > 100 µM (inactive) | GI50 (NCI-H226): 95.5 µM (inactive) | GI50 (NCI-H23): > 100 µM (inactive) | GI50 (NCI-H460): 70.8 µM (inactive) | GI50 (NCI-H522): 30.5 µM (inactive) | GI50 (NCI/ADR-RES): 22.5 µM (inactive) | GI50 (OVCAR-3): > 100 µM (inactive) | GI50 (OVCAR-4): 49 µM (inactive) | GI50 (OVCAR-5): > 100 µM (inactive) | GI50 (OVCAR-8): 42.2 µM (inactive) | GI50 (PC-3): 43.7 µM (inactive) | GI50 (RPMI-8226): > 100 µM (inactive) | GI50 (RXF 393): 55 µM (inactive) | GI50 (SF-268): 73.6 µM (inactive) | GI50 (SF-295): 65 µM (inactive) | GI50 (SF-539): > 100 µM (inactive) | GI50 (SK-MEL-28): > 100 µM (inactive) | GI50 (SK-MEL-2): > 100 µM (inactive) | GI50 (SK-MEL-5): 73.1 µM (inactive) | GI50 (SK-OV-3): > 100 µM (inactive) | GI50 (SN12C): > 100 µM (inactive) | GI50 (SNB-19): > 100 µM (inactive) | GI50 (SNB-75): 22.3 µM (inactive) | GI50 (SW-620): > 100 µM (inactive) | GI50 (T47D): 79.4 µM (inactive) | GI50 (TK-10): > 100 µM (inactive) | GI50 (U-251): > 100 µM (inactive) | GI50 (UACC-257): > 100 µM (inactive) | GI50 (UACC-62): > 100 µM (inactive) | GI50 (UO-31): 51.2 µM (inactive)
